“Also recorded” adds a separate entry of the source.
Columns and labels:
[1] = target: T1, recombinant AaDBR2 (artemisinic aldehyde double bond reductase) (Artemisia annua, UniProt C5H429, A226G/L231G/N16K); assay: In vitro enzyme assays of recombinant AaDBR2 with potential substrates, GC/MS analysis; format: biochemical; conditions: for activity of AaDBR2 on the substance as substrate: tested as potential substrate, with NADPH, GC/MS
T1 construct: This ORF encodes a 415-amino acid protein with a predicted molecular mass of 45.6 kDa; made in house; host or cells: E. coli Rosetta 2(DE3)
Experimental: The purified recombinant His-tagged AaDBR2 protein was assayed with artemisinic aldehyde, followed by gas chromatography/mass spectrometry analysis. Enzyme reactions were initiated by adding the 0.4 mM artemisinic aldehyde to 300 μL reaction mixture containing 50 mM Tris-HCl (pH 8.0), 1 mM NADPH, 2 mM DTT and 2.0 μg of AaDBR2. Negative controls were carried out with boiled proteins, without NADPH. Reactions were allowed to proceed for 30 minutes at 30° C. with shaking, stopped by adding 15 μL acetic acid and extracted with 100 μL ethyl acetate. The ethyl acetate extracts were pooled and partially evaporated prior to GC-MS analysis. The reaction products were confirmed by comparing GC retention time and MS data with those of synthetic (11R)-dihydroartemisinic aldehyde. For quantification, octadecane was used as an internal standard.
(§1) For comparison of the catalytic properties of AaDBR2 against other substrates, reaction mixtures were pre-warmed to 30° C., and reactions were initiated by addition of AaDBR2. The pH optimum of the purified AaDBR2 was determined to be 7.5 in assay that included one of three 50 mM buffers (MES, HEPES, and Tris-HCl) adjusted to between pH 5.5 and 9.0 in 0.5-unit intervals and 0.5 mM artemisinic aldehyde and 0.48 μg of purified recombinant AaDBR2. Apparent kinetic parameters were determined under conditions that limited conversion to less than 10% as follows. Concentrations of artemisinic aldehyde (6-250 μM, 0.24 μg of AaDBR2, 2 min), 2-cyclohexen-1-one (80-10,000 μM, 0.48 μg of AaDBR2, 10 min), and (+)-carvone (20-5000 μM, 0.48 μg AaDBR2, 10 min) were varied in the presence of 1 mM NADPH. To assess cofactor specificity, concentrations of NADPH (10-640 μM, 0.48 μg of AaDBR2, 2 min) and NADH (0.2-13 mM, 1.9 μg of AaDBR2, 2 min) were varied in the presence of 0.5 mM artemisinic aldehyde. The ethyl acetate extracts from triplicate reaction mixtures were directly analyzed by GC/MS. Octadecane was used as an internal standard to quantify the products formed from the reactions using response factors determined using standards for each enzyme product. Km and kcat values were determined by nonlinear regression analysis using GraphPad™ software (GraphPad™ Software Inc., San Diego, Calif.).

[2] = target: T1, recombinant AaDBR2 (artemisinic aldehyde double bond reductase); assay: Apparent kinetic parameters of purified recombinant AaDBR2; format: biochemical
Experimental: as §1

Plasmodium falciparum = conditions: more active than artesunate; cited from earlier work
[3] = substrate varied in the presence of 1 mM NADPH, 30° C.
[4] = cofactor varied in the presence of 0.5 mM artemisinic aldehyde

T1 sequence (C5H429 other isoform, or with tags, fused parts or gaps N16K/A226G/L231G): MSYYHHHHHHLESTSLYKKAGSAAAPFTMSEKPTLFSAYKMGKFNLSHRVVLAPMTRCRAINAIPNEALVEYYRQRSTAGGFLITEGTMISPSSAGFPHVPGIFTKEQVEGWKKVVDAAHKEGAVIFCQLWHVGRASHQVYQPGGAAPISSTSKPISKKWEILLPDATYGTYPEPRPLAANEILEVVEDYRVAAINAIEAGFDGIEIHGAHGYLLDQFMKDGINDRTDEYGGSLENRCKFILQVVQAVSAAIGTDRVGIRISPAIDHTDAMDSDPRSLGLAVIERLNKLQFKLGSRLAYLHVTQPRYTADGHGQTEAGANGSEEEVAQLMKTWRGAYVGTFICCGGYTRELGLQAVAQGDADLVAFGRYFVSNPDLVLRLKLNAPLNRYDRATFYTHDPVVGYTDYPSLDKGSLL

Row | Compound | activity of AaDBR2 on the substance as substrate [1] | further results
1 | O=C1C=CCCC1 [2-cyclohexen-1-one] | has activity | –
2 | CCCCCC/C=C/C=O [2E-nonenal] | low activity; also recorded: No activity was detected | rate relative to the rate for artemisinic aldehyde ([1]; AaDBR2 substrate, FIG. 8): about 12%
3 | C=C(C)[C@H]1CC=C(C)C(=O)C1 [(+)-carvone, (+)-Carvone] | has activity | Km [2, 3]: 650 µM; kcat [2, 3]: 0.86 s⁻¹
4 | CC(C)=C1CC[C@@H](C)CC1=O [(+)-pulegone] | No activity was detected | –
5 | CC1=CC[C@@H]2C[C@H]1C2(C)C [(+)-α-pinene] | No activity was detected | –
6 | C[C@H]1[C@H](N2CCS(=O)(=O)CC2)O[C@@H]2O[C@@]3(C)CC[C@H]4[C@H](C)CC[C@@H]1[C@@]24OO3 [Artemisone] | – | activity relative to artesunate (Plasmodium falciparum): 10-30 fold
7 | NC(=O)C1=CN([C@@H]2O[C@H](COP(=O)(O)OP(=O)(O)OC[C@H]3O[C@@H](n4cnc5c(N)ncnc54)[C@H](O)[C@@H]3O)[C@@H](O)[C@H]2O)C=CC1 [NADH] | – | Km [2, 4]: 770 µM; kcat [2, 4]: 1.3 s⁻¹; enzyme activity in the presence of the cofactor ([1]; preliminary experiments): active
8 | NC(=O)C1=CN([C@@H]2O[C@H](COP(=O)(O)OP(=O)(O)OC[C@H]3O[C@@H](n4cnc5c(N)ncnc54)[C@H](OP(=O)(O)O)[C@@H]3O)[C@@H](O)[C@H]2O)C=CC1 [NADPH] | – | Km [2, 4]: 95 µM; kcat [2, 4]: 2.5 s⁻¹
9 | C=C1C(=O)O[C@@]23[C@H]1CC[C@@H](C)[C@@H]2CC[C@@]1(C)O[C@@H]31 [arteannuin B, Arteannuin B] | No activity was detected | –
10 | C=C(C(=O)O)[C@@H]1CC[C@@H](C)[C@@H]2CCC(C)=C[C@@H]21 [artemisinic acid] | No activity was detected | –
11 | C=C(CO)[C@@H]1CC[C@@H](C)[C@@H]2CCC(C)=C[C@@H]21 [artemisinic alcohol, Artemisinic alcohol] | No activity was detected | –
12 | C=C(C=O)[C@@H]1CC[C@@H](C)[C@@H]2CCC(C)=C[C@@H]21 [artemisinic aldehyde] | has activity | Km lower relative to 2-cyclohexen-1-one and (+)-carvone ([2]; Table 2 comparison): more than 30 fold; Km [2, 3]: 19 µM; kcat [2, 3]: 2.6 s⁻¹
13 | C=C1C(=O)O[C@@H]2O[C@@]3(C)CC[C@H]4[C@H](C)CC[C@@H]1[C@@]24OO3 [artemisitene] | No activity was detected | –
14 | COc1cc(/C=C/C=O)ccc1O [coniferyl aldehyde] | No activity was detected | –
15 | C=C1C(=O)CC2(C(C)C)CC12 (stereo not drawn) [sabinone, Sabinone] | No activity was detected | –
